According to ChEMBL document CHEMBL5724806, “Unraveling interindividual differences and functional consequences of gut microbial metabolism of immunosuppressants” (2024):

How the values were obtained:
Assay type in all cases: ADME
[1] = The drug is tested on Escherichia coli strain: DSM27469 for biotransformation under microaerobic condition. The drug concentrations were measured over 6 timepoints collected between 0 and 12 hours of incubation by liquid-chromatography-coupled mass spectrometry (LC–MS); set-up: dose 5 uM, timepoint 0, 1.5, 3, 6, 9, 12 hours; details: 5 µM
[2] = The drug is tested on the gut metagenome community of A-02 with ENA study accession number: PRJEB31790 for biotransformation under microaerobic condition. The drug concentrations were measured over 7 timepoints collected between 0 and 12 hours of incubation by liquid-chromatography-coupled mass spectrometry (LC–MS); set-up: dose 5 uM, timepoint 0, 0.75, 1.5, 3, 6, 9, 12 hours; details: 5 µM
[3] = The drug is tested on the gut metagenome community of P-04 with ENA study accession number: PRJEB31790 for biotransformation under anaerobic condition. The drug concentrations were measured over 7 timepoints collected between 0 and 12 hours of incubation by liquid-chromatography-coupled mass spectrometry (LC–MS); set-up: dose 5 uM, timepoint 0, 0.75, 1.5, 3, 6, 9, 12 hours; details: 5 µM
[4] = The drug is tested on Enterococcus faecalis strain: ATCC29212 for biotransformation under microaerobic condition. The drug concentrations were measured over 6 timepoints collected between 0 and 12 hours of incubation by liquid-chromatography-coupled mass spectrometry (LC–MS); set-up: dose 5 uM, timepoint 0, 1.5, 3, 6, 9, 12 hours; details: 5 µM
[5] = The drug is tested on Lactobacillus fermentum strain: DSM20052 for biotransformation under anaerobic condition. The drug concentrations were measured over 6 timepoints collected between 0 and 12 hours of incubation by liquid-chromatography-coupled mass spectrometry (LC–MS); set-up: dose 5 uM, timepoint 0, 1.5, 3, 6, 9, 12 hours; details: limosilactobacillus fermentum, 5 µM
[6] = The drug is tested on Capnocytophaga ochracea strain: DSM7271 for biotransformation under microaerobic condition. The drug concentrations were measured over 6 timepoints collected between 0 and 12 hours of incubation by liquid-chromatography-coupled mass spectrometry (LC–MS); set-up: dose 5 uM, timepoint 0, 1.5, 3, 6, 9, 12 hours; details: 5 µM
[7] = The drug is tested on Eubacterium eligens strain: DSM3376 for biotransformation under anaerobic condition. The drug concentrations were measured over 6 timepoints collected between 0 and 12 hours of incubation by liquid-chromatography-coupled mass spectrometry (LC–MS); set-up: dose 5 uM, timepoint 0, 1.5, 3, 6, 9, 12 hours; details: lachnospira eligens, 5 µM
[8] = The drug is tested on Lactobacillus reuteri strain: DSM20016 for biotransformation under anaerobic condition. The drug concentrations were measured over 6 timepoints collected between 0 and 12 hours of incubation by liquid-chromatography-coupled mass spectrometry (LC–MS); set-up: dose 5 uM, timepoint 0, 1.5, 3, 6, 9, 12 hours; details: limosilactobacillus reuteri, 5 µM
[9] = The drug is tested on Coprococcus comes strain: ATCC27758 for biotransformation under anaerobic condition. The drug concentrations were measured over 6 timepoints collected between 0 and 12 hours of incubation by liquid-chromatography-coupled mass spectrometry (LC–MS); set-up: dose 5 uM, timepoint 0, 1.5, 3, 6, 9, 12 hours; details: 5 µM
[10] = The drug is tested on Alloscardovia omnicolens strain: DSM21503 for biotransformation under microaerobic condition. The drug concentrations were measured over 6 timepoints collected between 0 and 12 hours of incubation by liquid-chromatography-coupled mass spectrometry (LC–MS); set-up: dose 5 uM, timepoint 0, 1.5, 3, 6, 9, 12 hours; details: 5 µM
[11] = The drug is tested on the gut metagenome community of T-01 with ENA study accession number: PRJEB31790 for biotransformation under microaerobic condition. The drug concentrations were measured over 7 timepoints collected between 0 and 12 hours of incubation by liquid-chromatography-coupled mass spectrometry (LC–MS); set-up: dose 5 uM, timepoint 0, 0.75, 1.5, 3, 6, 9, 12 hours; details: 5 µM
[12] = The drug is tested on the gut metagenome community of A-08 with ENA study accession number: PRJEB31790 for biotransformation under anaerobic condition. The drug concentrations were measured over 7 timepoints collected between 0 and 12 hours of incubation by liquid-chromatography-coupled mass spectrometry (LC–MS); set-up: dose 5 uM, timepoint 0, 0.75, 1.5, 3, 6, 9, 12 hours; details: 5 µM
[13] = The drug is tested on Gemella haemolysans strain: DSM107751 for biotransformation under microaerobic condition. The drug concentrations were measured over 6 timepoints collected between 0 and 12 hours of incubation by liquid-chromatography-coupled mass spectrometry (LC–MS); set-up: dose 5 uM, timepoint 0, 1.5, 3, 6, 9, 12 hours; details: 5 µM
[14] = The drug is tested on the gut metagenome community of A-06 with ENA study accession number: PRJEB31790 for biotransformation under microaerobic condition. The drug concentrations were measured over 7 timepoints collected between 0 and 12 hours of incubation by liquid-chromatography-coupled mass spectrometry (LC–MS); set-up: dose 5 uM, timepoint 0, 0.75, 1.5, 3, 6, 9, 12 hours; details: 5 µM
[15] = The drug is tested on the gut metagenome community of A-05 with ENA study accession number: PRJEB31790 for biotransformation under anaerobic condition. The drug concentrations were measured over 7 timepoints collected between 0 and 12 hours of incubation by liquid-chromatography-coupled mass spectrometry (LC–MS); set-up: dose 5 uM, timepoint 0, 0.75, 1.5, 3, 6, 9, 12 hours; details: 5 µM
[16] = The drug is tested on the gut metagenome community of A-07 with ENA study accession number: PRJEB31790 for biotransformation under microaerobic condition. The drug concentrations were measured over 7 timepoints collected between 0 and 12 hours of incubation by liquid-chromatography-coupled mass spectrometry (LC–MS); set-up: dose 5 uM, timepoint 0, 0.75, 1.5, 3, 6, 9, 12 hours; details: 5 µM
[17] = The drug is tested on the gut metagenome community of A-09 with ENA study accession number: PRJEB31790 for biotransformation under microaerobic condition. The drug concentrations were measured over 7 timepoints collected between 0 and 12 hours of incubation by liquid-chromatography-coupled mass spectrometry (LC–MS); set-up: dose 5 uM, timepoint 0, 0.75, 1.5, 3, 6, 9, 12 hours; details: 5 µM
[18] = The drug is tested on the gut metagenome community of T-03 with ENA study accession number: PRJEB31790 for biotransformation under microaerobic condition. The drug concentrations were measured over 7 timepoints collected between 0 and 12 hours of incubation by liquid-chromatography-coupled mass spectrometry (LC–MS); set-up: dose 5 uM, timepoint 0, 0.75, 1.5, 3, 6, 9, 12 hours; details: 5 µM
[19] = The drug is tested on the gut metagenome community of P-02 with ENA study accession number: PRJEB31790 for biotransformation under microaerobic condition. The drug concentrations were measured over 7 timepoints collected between 0 and 12 hours of incubation by liquid-chromatography-coupled mass spectrometry (LC–MS); set-up: dose 5 uM, timepoint 0, 0.75, 1.5, 3, 6, 9, 12 hours; details: 5 µM
[20] = The drug is tested on Enterococcus faecalis strain: ATCC29212 for biotransformation under anaerobic condition. The drug concentrations were measured over 6 timepoints collected between 0 and 12 hours of incubation by liquid-chromatography-coupled mass spectrometry (LC–MS); set-up: dose 5 uM, timepoint 0, 1.5, 3, 6, 9, 12 hours; details: 5 µM
[21] = The drug is tested on Gemella morbillorum strain: DSM20572 for biotransformation under anaerobic condition. The drug concentrations were measured over 6 timepoints collected between 0 and 12 hours of incubation by liquid-chromatography-coupled mass spectrometry (LC–MS); set-up: dose 5 uM, timepoint 0, 1.5, 3, 6, 9, 12 hours; details: 5 µM
[22] = The drug is tested on Bifidobacterium adolescentis strain: DSM20083 for biotransformation under anaerobic condition. The drug concentrations were measured over 6 timepoints collected between 0 and 12 hours of incubation by liquid-chromatography-coupled mass spectrometry (LC–MS); set-up: dose 5 uM, timepoint 0, 1.5, 3, 6, 9, 12 hours; details: 5 µM
[23] = The drug is tested on the gut metagenome community of P-02 with ENA study accession number: PRJEB31790 for biotransformation under anaerobic condition. The drug concentrations were measured over 7 timepoints collected between 0 and 12 hours of incubation by liquid-chromatography-coupled mass spectrometry (LC–MS); set-up: dose 5 uM, timepoint 0, 0.75, 1.5, 3, 6, 9, 12 hours; details: 5 µM
[24] = The drug is tested on Lactobacillus fermentum strain: DSM20052 for biotransformation under microaerobic condition. The drug concentrations were measured over 6 timepoints collected between 0 and 12 hours of incubation by liquid-chromatography-coupled mass spectrometry (LC–MS); set-up: dose 5 uM, timepoint 0, 1.5, 3, 6, 9, 12 hours; details: limosilactobacillus fermentum, 5 µM
[25] = The drug is tested on Bacteroides fragilis strain: DSM2151 for biotransformation under anaerobic condition. The drug concentrations were measured over 6 timepoints collected between 0 and 12 hours of incubation by liquid-chromatography-coupled mass spectrometry (LC–MS); set-up: dose 5 uM, timepoint 0, 1.5, 3, 6, 9, 12 hours; details: 5 µM

NS(=O)(=O)c1cc(C(=O)O)c(NCc2ccco2)cc1Cl [FUROSEMIDE]
Bacterial Biotransformation [1]: Compound NOT metabolized
Bacterial Biotransformation [2]: Compound NOT metabolized
Bacterial Biotransformation [3]: Compound NOT metabolized
Bacterial Biotransformation [4]: Compound NOT metabolized
Bacterial Biotransformation [5]: Compound NOT metabolized
Bacterial Biotransformation [6]: Compound NOT metabolized
Bacterial Biotransformation [7]: Compound NOT metabolized
Bacterial Biotransformation [8]: Compound NOT metabolized
Bacterial Biotransformation [9]: Compound NOT metabolized
Bacterial Biotransformation [10]: Compound NOT metabolized
Bacterial Biotransformation [11]: Compound NOT metabolized
Bacterial Biotransformation [12]: Compound NOT metabolized
Bacterial Biotransformation [13]: Compound NOT metabolized
Bacterial Biotransformation [14]: Compound NOT metabolized
Bacterial Biotransformation [15]: Compound NOT metabolized
Bacterial Biotransformation [16]: Compound NOT metabolized
Bacterial Biotransformation [17]: Compound NOT metabolized
Bacterial Biotransformation [18]: Compound NOT metabolized
Bacterial Biotransformation [19]: Compound NOT metabolized
Bacterial Biotransformation [20]: Compound NOT metabolized
Bacterial Biotransformation [21]: Compound NOT metabolized
Bacterial Biotransformation [22]: Compound NOT metabolized
Bacterial Biotransformation [23]: Compound NOT metabolized
Bacterial Biotransformation [24]: Compound NOT metabolized
Bacterial Biotransformation [25]: Compound NOT metabolized

C[C@]12CCC(=O)C=C1CC[C@@H]1[C@@H]2[C@@H](O)C[C@@]2(C)[C@H]1CC[C@]2(O)C(=O)CO [HYDROCORTISONE]
Bacterial Biotransformation [1]: Compound NOT metabolized
Bacterial Biotransformation [2]: Compound metabolized
Bacterial Biotransformation [3]: Compound metabolized
Bacterial Biotransformation [4]: Compound NOT metabolized
Bacterial Biotransformation [5]: Compound NOT metabolized
Bacterial Biotransformation [6]: Compound NOT metabolized
Bacterial Biotransformation [7]: Compound NOT metabolized
Bacterial Biotransformation [8]: Compound NOT metabolized
Bacterial Biotransformation [9]: Compound NOT metabolized
Bacterial Biotransformation [10]: Compound NOT metabolized
Bacterial Biotransformation [11]: Compound metabolized
Bacterial Biotransformation [12]: Compound metabolized
Bacterial Biotransformation [13]: Compound NOT metabolized
Bacterial Biotransformation [14]: Compound metabolized
Bacterial Biotransformation [15]: Compound metabolized
Bacterial Biotransformation [16]: Compound metabolized
Bacterial Biotransformation [17]: Compound metabolized
Bacterial Biotransformation [18]: Compound NOT metabolized
Bacterial Biotransformation [19]: Compound NOT metabolized
Bacterial Biotransformation [20]: Compound NOT metabolized
Bacterial Biotransformation [21]: Compound NOT metabolized
Bacterial Biotransformation [22]: Compound NOT metabolized
Bacterial Biotransformation [23]: Compound NOT metabolized
Bacterial Biotransformation [24]: Compound NOT metabolized
Bacterial Biotransformation [25]: Compound NOT metabolized

CN(Cc1cnc2nc(N)nc(N)c2n1)c1ccc(C(=O)N[C@@H](CCC(=O)O)C(=O)O)cc1 [METHOTREXATE]
Bacterial Biotransformation [1]: Compound NOT metabolized
Bacterial Biotransformation [2]: Compound metabolized
Bacterial Biotransformation [3]: Compound NOT metabolized
Bacterial Biotransformation [4]: Compound NOT metabolized
Bacterial Biotransformation [5]: Compound NOT metabolized
Bacterial Biotransformation [6]: Compound NOT metabolized
Bacterial Biotransformation [7]: Compound NOT metabolized
Bacterial Biotransformation [8]: Compound NOT metabolized
Bacterial Biotransformation [9]: Compound metabolized
Bacterial Biotransformation [10]: Compound NOT metabolized
Bacterial Biotransformation [11]: Compound metabolized
Bacterial Biotransformation [12]: Compound metabolized
Bacterial Biotransformation [13]: Compound NOT metabolized
Bacterial Biotransformation [14]: Compound metabolized
Bacterial Biotransformation [15]: Compound NOT metabolized
Bacterial Biotransformation [16]: Compound metabolized
Bacterial Biotransformation [17]: Compound metabolized
Bacterial Biotransformation [18]: Compound NOT metabolized
Bacterial Biotransformation [19]: Compound NOT metabolized
Bacterial Biotransformation [20]: Compound NOT metabolized
Bacterial Biotransformation [21]: Compound NOT metabolized
Bacterial Biotransformation [22]: Compound NOT metabolized
Bacterial Biotransformation [23]: Compound metabolized
Bacterial Biotransformation [24]: Compound NOT metabolized
Bacterial Biotransformation [25]: Compound NOT metabolized
